{
  "source": "patent US6037351A",
  "about": "“Method of inhibiting hepatitis B virus” (priority 1996, dated 2000)",
  "key": {"[1]": {"tested_on": "Human Immunodeficiency Virus (HIV)", "conditions": "cited from earlier work"}, "HBs proteins": {"tested_on": "HBs proteins", "test": "ELISA of HBs proteins in virion fraction of medium (sucrose gradient)", "type": "cell-based, HBV", "conditions": "40-46% sucrose fraction", "procedure": "FIG. 3D: Histogram of the area under the averaged peaks of the densitometric tracing of the gel in FIG. 3B. […] Equal volumes of the indicated samples were tested for HBV envelope antigens using the enzyme-linked imminosorbent assay (ELISA) method. Samples of unfractionated medium (FIGS. 4A, 4B and 4C) or partially purified virus (FIGS. 4D, 4E and 4F) from 3-day cultures were tested for HBV SHBs (\"S) (FIGS. 4A and 4D), LHBs: \"PreS1\" (FIGS. 4B and 4E) or MHBs \"PreS2\" (FIGS. 4C and 4F) epitopes. Cultures were maintained in the indicated concentrations of NBDNJ, expressed in millimolar units and shown along the X axis.\nDetection of HBV proteins by the Enzyme Linked Immunoabsorbant assay (ELISA).\nMonoclonal antibodies used herein are well-known and are described by Heerman et al., J. Virol. 52, 396-402 (1984), for antibody to PreS1 (MA 18/7); Heerman et al., Intervirology 28: 14-21 (1987), for antibody to PreS2 (Q 19/10), see also Gerlich and Bruss, Molecular Biology of Hepatitis B Virus, ed. […]\nBound antigen was detected by incubation with peroxidase conjugated goat anti-HBs antibody (Behring) followed by development in orthophenylenediamine (0.33 mg/ml PBS-peroxide solution). Optical densities were read in a Behring plate reader. Tests on purified virus and total medium were conducted over a series of sample dilutions to insure proper quantification. […]"}},
  "data": [
    {"smiles": "CCCCN1C[C@H](O)[C@@H](O)[C@H](O)[C@H]1CO", "note": "[NBDNJ, N-butyl-1,5-dideoxy-1,5-imino-D-glucitol]", "values": [
      {"measurement": "formation of cytotoxic HIV in vitro (in words)", "setting": "[1]", "result": "suppress formation of cytotoxic Human Immunodeficiency Virus (HIV) in vitro"},
      {"measurement": "HBs proteins in virion samples from medium", "setting": "HBs proteins; NBDNJ 2.25 mM (approximately 500 μg/ml)", "result": "virtually no detectable HBs proteins"},
      {"measurement": "HBs proteins in virion samples from medium", "setting": "HBs proteins; NBDNJ 4.5 mM (approximately 1000 μg/ml)", "result": "virtually no detectable HBs proteins"}
    ]}
  ]
}
